In patent publication US10597388B2, “Pyridazinone herbicides” (FMC CORPORATION, priority 2014, dated 2020):

Key:
Experiment in all cases: Test D controlled growth environment herbicide test, pre- and postemergence
Assay type in all cases: in vivo
[1] = system: oat, wild (wild oat, Avena fatua)
Outline: (§1)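 Species sown in silt loam and sprayed preemergence, or grown in peat-based medium to 2–18 cm (1- to 4-leaf stage) and sprayed postemergence, with compounds in non-phytotoxic solvent plus surfactant. Visual injury scored versus controls after 14–21 d in a controlled environment, 0 (no effect) to 100 (complete control).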

[2] = system: lambsquarters (Chenopodium album)
Outline: as §1

[3] = system: barley, winter (winter barley, Hordeum vulgare)
Outline: as §1

[4] = system: wheat, spring (spring wheat, Triticum aestivum)
Outline: as §1

[5] = system: radish, wild (wild radish, Raphanus raphanistrum)
Outline: as §1

[6] = system: bluegrass (annual bluegrass, Poa annua)
Outline: as §1

[7] = system: field poppy (Papaver rhoeas)
Outline: as §1

[8] = system: Russian thistle (Salsola kali)
Outline: as §1

[9] = system: chickweed (common chickweed, Stellaria media)
Outline: as §1

[10] = system: wheat, winter (winter wheat, Triticum aestivum)
Outline: as §1

[11] = system: canarygrass (Phalaris minor)
Outline: as §1

[12] = system: field violet (Viola arvensis)
Outline: as §1

[13] = system: barley, spring (spring barley, Hordeum vulgare)
Outline: as §1

[14] = Postemergence, 31 g ai/ha, scale 0 to 100 (0 no effect, 100 complete control)
[15] = Postemergence, 125 g ai/ha, visual rating on scale 0 (no effect) to 100 (complete control), 14 to 21 d
[16] = Postemergence, 250 g ai/ha, scale 0 to 100 (0 no effect, 100 complete control)
[17] = Preemergence, 62 g ai/ha, scale 0 to 100 (0 no effect, 100 complete control)
[18] = Preemergence, 125 g ai/ha, scale 0 to 100 (0 no effect, 100 complete control)
[19] = Preemergence, 250 g ai/ha, scale 0 to 100, 0 no effect, 100 complete control
[20] = postemergence, 62 g ai/ha, scale 0 to 100, 0 no effect, 100 complete control

For `COC(=O)Oc1c(C)nn(C)c(=O)c1-c1c(C)sc2ccc(C)cc12` [Compound 80], the “Oat, Wild plant response rating” value [1, 14] was 95, the “Plant response rating, Oat, Wild” value [1, 15] was 100 and the “Plant response rating, Oat, Wild” value [1, 16] was 100. For the same compound, the “Plant response rating (scale of 0 to 100), Oat, Wild” value ([1]; Preemergence, 31 g ai/ha) was 85, the “Plant response rating, Oat, Wild” value [1, 17] was 90 and the “Plant response rating, Oat, Wild” value [1, 18] was 90. For the same compound, the “Plant response rating, Oat, Wild” value [1, 19] was 95, the “Plant response rating, Oat, Wild” value [1, 20] was 98 and the “Lambsquarters plant response rating” value [2, 14] was 95. For the same compound, the “Plant response rating, Lambsquarters” value [2, 15] was 100, the “Plant response rating, Lambsquarters” value [2, 16] was 100 and the “Plant response rating (scale of 0 to 100), Lambsquarters” value ([2]; Preemergence, 31 g ai/ha) was 100. For the same compound, the “Plant response rating, Lambsquarters” value [2, 17] was 100, the “Plant response rating, Lambsquarters” value [2, 18] was 100 and the “Plant response rating, Lambsquarters” value [2, 19] was 100. For the same compound, the “Plant response rating, Lambsquarters” value [2, 20] was 100, the “Barley, Winter plant response rating” value [3, 14] was 0 and the “Plant response rating, Barley, Winter” value [3, 15] was 5. For the same compound, the “Plant response rating, Barley, Winter” value [3, 16] was 15, the “Plant response rating (scale of 0 to 100), Barley, Winter” value ([3]; Preemergence, 31 g ai/ha) was 0 and the “Plant response rating, Barley, Winter” value [3, 17] was 0. For the same compound, the “Plant response rating, Barley, Winter” value [3, 18] was 15, the “Plant response rating, Barley, Winter” value [3, 19] was 45 and the “Plant response rating, Barley, Winter” value [3, 20] was 0. The “Wheat, Spring plant response rating” value [4, 14] was 0, the “Plant response rating, Wheat, Spring” value [4, 15] was 15 and the “Plant response rating, Wheat, Spring” value [4, 16] was 30. The “Plant response rating (scale of 0 to 100), Wheat, Spring” value ([4]; Preemergence, 31 g ai/ha) was 0, the “Plant response rating, Wheat, Spring” value [4, 17] was 0 and the “Plant response rating, Wheat, Spring” value [4, 18] was 25. The “Plant response rating, Wheat, Spring” value [4, 19] was 35, the “Plant response rating, Wheat, Spring” value [4, 20] was 10 and the “Radish, Wild plant response rating” value [5, 14] was 10. The “Plant response rating, Radish, Wild” value [5, 15] was 50, the “Plant response rating, Radish, Wild” value [5, 16] was 65 and the “Plant response rating (scale of 0 to 100), Radish, Wild” value ([5]; Preemergence, 31 g ai/ha) was 20. The “Plant response rating, Radish, Wild” value [5, 17] was 75, the “Plant response rating, Radish, Wild” value [5, 18] was 100 and the “Plant response rating, Radish, Wild” value [5, 19] was 100. For the same compound, the “Plant response rating, Radish, Wild” value [5, 20] was 50, the “Bluegrass plant response rating” value [6, 14] was 15 and the “Plant response rating, Bluegrass” value [6, 15] was 35. The “Plant response rating, Bluegrass” value [6, 16] was 45, the “Plant response rating (scale of 0 to 100), Bluegrass” value ([6]; Preemergence, 31 g ai/ha) was 20 and the “Plant response rating, Bluegrass” value [6, 17] was 55. For the same compound, the “Plant response rating, Bluegrass” value [6, 18] was 75, the “Plant response rating, Bluegrass” value [6, 19] was 75 and the “Plant response rating, Bluegrass” value [6, 20] was 35. The “Field Poppy plant response rating” value [7, 14] was 60, the “Plant response rating, Field Poppy” value [7, 15] was 100 and the “Plant response rating, Field Poppy” value [7, 16] was 100. The “Plant response rating (scale of 0 to 100), Field Poppy” value ([7]; Preemergence, 31 g ai/ha) was 90, the “Plant response rating, Field Poppy” value [7, 17] was 100 and the “Plant response rating, Field Poppy” value [7, 18] was 100. The “Plant response rating, Field Poppy” value [7, 19] was 100, the “Plant response rating, Field Poppy” value [7, 20] was 80 and the “Russian Thistle plant response rating” value [8, 14] was 70. The “Plant response rating, Russian Thistle” value [8, 15] was 80, the “Plant response rating, Russian Thistle” value [8, 16] was 80 and the “Plant response rating (scale of 0 to 100), Russian Thistle” value ([8]; Preemergence, 31 g ai/ha) was 10. The “Plant response rating, Russian Thistle” value [8, 17] was 95, the “Plant response rating, Russian Thistle” value [8, 18] was 95 and the “Plant response rating, Russian Thistle” value [8, 19] was 100. For the same compound, the “Plant response rating, Russian Thistle” value [8, 20] was 70, the “Chickweed plant response rating” value [9, 14] was 90 and the “Plant response rating, Chickweed” value [9, 15] was 100. The “Plant response rating, Chickweed” value [9, 16] was 100, the “Plant response rating (scale of 0 to 100), Chickweed” value ([9]; Preemergence, 31 g ai/ha) was 100 and the “Plant response rating, Chickweed” value [9, 17] was 100. For the same compound, the “Plant response rating, Chickweed” value [9, 18] was 100, the “Plant response rating, Chickweed” value [9, 19] was 100 and the “Plant response rating, Chickweed” value [9, 20] was 100. For the same compound, the “Wheat, Winter plant response rating” value [10, 14] was 0, the “Plant response rating, Wheat, Winter” value [10, 15] was 5 and the “Plant response rating, Wheat, Winter” value [10, 16] was 15. For the same compound, the “Plant response rating (scale of 0 to 100), Wheat, Winter” value ([10]; Preemergence, 31 g ai/ha) was 0, the “Plant response rating, Wheat, Winter” value [10, 17] was 0 and the “Plant response rating, Wheat, Winter” value [10, 18] was 0. For the same compound, the “Plant response rating, Wheat, Winter” value [10, 19] was 20, the “Plant response rating, Wheat, Winter” value [10, 20] was 0 and the “Canarygrass plant response rating” value [11, 14] was 55. The “Plant response rating, Canarygrass” value [11, 15] was 85, the “Plant response rating, Canarygrass” value [11, 16] was 90 and the “Plant response rating (scale of 0 to 100), Canarygrass” value ([11]; Preemergence, 31 g ai/ha) was 85. The “Plant response rating, Canarygrass” value [11, 17] was 90, the “Plant response rating, Canarygrass” value [11, 18] was 90 and the “Plant response rating, Canarygrass” value [11, 19] was 100. For the same compound, the “Plant response rating, Canarygrass” value [11, 20] was 80, the “Field Violet plant response rating” value [12, 14] was 90 and the “Plant response rating, Field Violet” value [12, 15] was 95. For the same compound, the “Plant response rating, Field Violet” value [12, 16] was 100, the “Plant response rating (scale of 0 to 100), Field Violet” value ([12]; Preemergence, 31 g ai/ha) was 55 and the “Plant response rating, Field Violet” value [12, 17] was 95. For the same compound, the “Plant response rating, Field Violet” value [12, 18] was 100, the “Plant response rating, Field Violet” value [12, 19] was 95 and the “Plant response rating, Field Violet” value [12, 20] was 85. The “Barley, Spring plant response rating” value [13, 14] was 0, the “Plant response rating, Barley, Spring” value [13, 15] was 15 and the “Plant response rating, Barley, Spring” value [13, 16] was 25. For the same compound, the “Plant response rating (scale of 0 to 100), Barley, Spring” value ([13]; Preemergence, 31 g ai/ha) was 0, the “Plant response rating, Barley, Spring” value [13, 17] was 0 and the “Plant response rating, Barley, Spring” value [13, 18] was 5. The “Plant response rating, Barley, Spring” value [13, 19] was 0 and the “Plant response rating, Barley, Spring” value [13, 20] was 10.
